From PMC12520178, “Turn-engineering tunes the conformational rigidity of β-hairpin AMPs in achieving membrane selectivity and killing drug-resistant ESKAPE pathogens” (Chemical Science, 2025)
Values after ≈ are worked out from the molar mass of the structure shown. Where a SMILES comes first, the peptide text is derived from it. [ ]: non-standard residue; d: D form. NMeR = CN[C@@H](CCCNC(=N)N)C(=O)O; dNMeR = CN[C@H](CCCNC(=N)N)C(=O)O

Columns and labels:
[1] = tested on: Escherichia coli; format: cell-based
[2] = tested on: Pseudomonas aeruginosa; format: cell-based
[3] = tested on: Acinetobacter baumannii; format: cell-based
[4] = tested on: Klebsiella pneumoniae; format: cell-based
[5] = tested on: Staphylococcus aureus; assay: microbe, parasite or virus in culture; format: cell-based
[6] = tested on: human red blood cells; settings: red cells of human

Row | SMILES | MIC90 [1] [µM] | MIC (μM) ec [1] [µM] | MIC (μM) pa [2] [µM] | MIC (μM) ab [3] [µM] | MIC (μM) kp [4] [µM] | MIC (μM) sa [5] [µM] | MHC10 (μM), minimum hemolytic concentration [6] [µM]
1 | CC(C)[C@H](NC(=O)[C@H](CCCNC(=N)N)NC(=O)[C@H](C)NC(=O)[C@H](Cc1ccc(O)cc1)NC(=O)[C@@H](NC(=O)[C@@H](NC(=O)[C@H](Cc1c[nH]c2ccccc12)NC(=O)[C@@H](N)CCCNC(=N)N)[C@@H](C)O)C(C)C)C(=O)N[C@H](C)C(=O)N(C)[C@@H](CCCNC(=N)N)C(=O)N[C@H](C(=O)N[C@@H](CCCNC(=N)N)C(=O)N[C@@H](Cc1ccc(O)cc1)C(=O)N[C@@H](CCCNC(=N)N)C(=O)N[C@@H](CCCNC(=N)N)C(=O)N[C@H](C(=O)N[C@@H](Cc1c[nH]c2ccccc12)C(=O)O)[C@@H](C)O)C(C)C [1d] (H-RWTVYARV[dA][NMeR]VRYRRTW-OH) | 0.4 (≈ 0.924 µg/mL) | 0.4 (≈ 0.924 µg/mL) | 2.4 (≈ 5.54 µg/mL) | 1.2 (≈ 2.77 µg/mL) | 0.4 (≈ 0.924 µg/mL) | 0.6 (≈ 1.39 µg/mL) | 100
2 | CC(C)[C@@H](NC(=O)[C@@H](CCCNC(=N)N)N(C)C(=O)[C@H](C)NC(=O)[C@H](NC(=O)[C@@H](CCCNC(=N)N)NC(=O)[C@@H](C)NC(=O)[C@@H](Cc1ccc(O)cc1)NC(=O)[C@H](NC(=O)[C@H](NC(=O)[C@@H](Cc1c[nH]c2ccccc12)NC(=O)[C@H](N)CCCNC(=N)N)[C@H](C)O)C(C)C)C(C)C)C(=O)N[C@H](CCCNC(=N)N)C(=O)N[C@H](Cc1ccc(O)cc1)C(=O)N[C@H](CCCNC(=N)N)C(=O)N[C@H](CCCNC(=N)N)C(=O)N[C@@H](C(=O)N[C@H](Cc1c[nH]c2ccccc12)C(=O)O)[C@H](C)O [1f] (H-[dR][dW][dT][dV][dY][dA][dR][dV]A[dNMeR][dV][dR][dY][dR][dR][dT][dW]-OH) | 0.4 (≈ 0.924 µg/mL) | 0.4 (≈ 0.924 µg/mL) | 3.1 (≈ 7.16 µg/mL) | 3.1 (≈ 7.16 µg/mL) | 3.1 (≈ 7.16 µg/mL) | 0.8 (≈ 1.85 µg/mL) | 100
3 | CC(C)C[C@H](NC(=O)[C@H](CCCNC(=N)N)NC(=O)CNC(=O)CNC(=O)[C@@H](N)CCCNC(=N)N)C(=O)N[C@H](C(=O)N[C@@H](Cc1ccc(O)cc1)C(=O)N[C@H](C(=O)N[C@@H](CCCNC(=N)N)C(=O)N[C@@H](CCCNC(=N)N)C(=O)N[C@@H](CCCNC(=N)N)C(=O)N[C@@H](Cc1ccccc1)C(=O)N[C@H](C(=O)N[C@H](C(=O)N[C@H](C(=O)N[C@H](C(=O)NCC(=O)N[C@@H](CCCNC(=N)N)C(N)=O)C(C)C)[C@@H](C)O)C(C)C)[C@@H](C)O)[C@@H](C)O)[C@@H](C)O [2c] (H-RGGRLTYTRRRFTVTVGR-NH2) | 1 (≈ 2.15 µg/mL) |  | 3.1 (≈ 6.67 µg/mL) | 3.1 (≈ 6.67 µg/mL) | 3.1 (≈ 6.67 µg/mL) | 6.3 (≈ 13.6 µg/mL) | >200
4 | CC(C)C[C@H](NC(=O)[C@H](CCCNC(=N)N)NC(=O)CNC(=O)CNC(=O)[C@@H](N)CCCNC(=N)N)C(=O)N[C@H](C(=O)N[C@@H](Cc1ccc(O)cc1)C(=O)N[C@H](C(=O)N[C@@H](CCCNC(=N)N)C(=O)N[C@H](C)C(=O)N(C)[C@@H](CCCNC(=N)N)C(=O)N[C@@H](Cc1ccccc1)C(=O)N[C@H](C(=O)N[C@H](C(=O)N[C@H](C(=O)N[C@H](C(=O)NCC(=O)N[C@@H](CCCNC(=N)N)C(N)=O)C(C)C)[C@@H](C)O)C(C)C)[C@@H](C)O)[C@@H](C)O)[C@@H](C)O [2d] (H-RGGRLTYTR[dA][NMeR]FTVTVGR-NH2) | 0.4 (≈ 0.832 µg/mL) |  | 1.6 (≈ 3.33 µg/mL) | 0.4 (≈ 0.832 µg/mL) | 0.8 (≈ 1.66 µg/mL) | 3.1 (≈ 6.45 µg/mL) | 100
5 | CC(C)C[C@@H](NC(=O)[C@@H](CCCNC(=N)N)NC(=O)CNC(=O)CNC(=O)[C@H](N)CCCNC(=N)N)C(=O)N[C@@H](C(=O)N[C@H](Cc1ccc(O)cc1)C(=O)N[C@@H](C(=O)N[C@H](CCCNC(=N)N)C(=O)N[C@@H](C)C(=O)N(C)[C@H](CCCNC(=N)N)C(=O)N[C@H](Cc1ccccc1)C(=O)N[C@@H](C(=O)N[C@@H](C(=O)N[C@@H](C(=O)N[C@@H](C(=O)NCC(=O)N[C@H](CCCNC(=N)N)C(N)=O)C(C)C)[C@H](C)O)C(C)C)[C@H](C)O)[C@H](C)O)[C@H](C)O [2f] (H-[dR]GG[dR][dL][dT][dY][dT][dR]A[dNMeR][dF][dT][dV][dT][dV]G[dR]-NH2) | 0.4 (≈ 0.832 µg/mL) | 0.4 (≈ 0.832 µg/mL) | 1.6 (≈ 3.33 µg/mL) | 2.3 (≈ 4.79 µg/mL) | 3.1 (≈ 6.45 µg/mL) | 2.3 (≈ 4.79 µg/mL) | >200
6 | CC(C)[C@H](NC(=O)[C@H](CCCNC(=N)N)NC(=O)[C@H](Cc1ccccc1)NC(=O)[C@@H](NC(=O)[C@H](Cc1c[nH]c2ccccc12)NC(=O)[C@H](CCCNC(=N)N)NC(=O)[C@@H](N)CCCNC(=N)N)[C@@H](C)O)C(=O)N[C@H](C(=O)N[C@@H](Cc1ccc(O)cc1)C(=O)N[C@@H](CCCNC(=N)N)C(=O)NCC(=O)N[C@@H](Cc1ccccc1)C(=O)N[C@H](C(=O)N[C@@H](Cc1ccc(O)cc1)C(=O)N[C@@H](CCCNC(=N)N)C(=O)N[C@@H](CCCCN)C(=O)N[C@H](C(=O)N[C@@H](CCCNC(=N)N)C(N)=O)[C@@H](C)O)[C@@H](C)O)[C@@H](C)O [3c] (H-RRWTFRVTYRGFTYRKTR-NH2) | 1.9 (≈ 4.65 µg/mL) |  | 6.3 (≈ 15.4 µg/mL) | 3.1 (≈ 7.59 µg/mL) | 6.3 (≈ 15.4 µg/mL) | 6.3 (≈ 15.4 µg/mL) | 100
7 | CC(C)[C@H](NC(=O)[C@H](CCCNC(=N)N)NC(=O)[C@H](Cc1ccccc1)NC(=O)[C@@H](NC(=O)[C@H](Cc1c[nH]c2ccccc12)NC(=O)[C@H](CCCNC(=N)N)NC(=O)[C@@H](N)CCCNC(=N)N)[C@@H](C)O)C(=O)N[C@H](C(=O)N[C@@H](Cc1ccc(O)cc1)C(=O)N[C@H](C)C(=O)N(C)[C@@H](CCCNC(=N)N)C(=O)N[C@@H](Cc1ccccc1)C(=O)N[C@H](C(=O)N[C@@H](Cc1ccc(O)cc1)C(=O)N[C@@H](CCCNC(=N)N)C(=O)N[C@@H](CCCCN)C(=O)N[C@H](C(=O)N[C@@H](CCCNC(=N)N)C(N)=O)[C@@H](C)O)[C@@H](C)O)[C@@H](C)O [3d] (H-RRWTFRVTY[dA][NMeR]FTYRKTR-NH2) | 0.4 (≈ 0.991 µg/mL) | 0.4 (≈ 0.991 µg/mL) | 0.4 (≈ 0.991 µg/mL) | 0.8 (≈ 1.98 µg/mL) | 2.4 (≈ 5.95 µg/mL) | 3.1 (≈ 7.68 µg/mL) | 50
8 | CC(C)[C@@H](NC(=O)[C@@H](CCCNC(=N)N)NC(=O)[C@@H](Cc1ccccc1)NC(=O)[C@H](NC(=O)[C@@H](Cc1c[nH]c2ccccc12)NC(=O)[C@@H](CCCNC(=N)N)NC(=O)[C@H](N)CCCNC(=N)N)[C@H](C)O)C(=O)N[C@@H](C(=O)N[C@H](Cc1ccc(O)cc1)C(=O)N[C@@H](C)C(=O)N(C)[C@H](CCCNC(=N)N)C(=O)N[C@H](Cc1ccccc1)C(=O)N[C@@H](C(=O)N[C@H](Cc1ccc(O)cc1)C(=O)N[C@H](CCCNC(=N)N)C(=O)N[C@H](CCCCN)C(=O)N[C@@H](C(=O)N[C@H](CCCNC(=N)N)C(N)=O)[C@H](C)O)[C@H](C)O)[C@H](C)O [3f] (H-[dR][dR][dW][dT][dF][dR][dV][dT][dY]A[dNMeR][dF][dT][dY][dR][dK][dT][dR]-NH2) | 0.4 (≈ 0.991 µg/mL) | 0.4 (≈ 0.991 µg/mL) | 1.6 (≈ 3.96 µg/mL) | 1.6 (≈ 3.96 µg/mL) | 3.1 (≈ 7.68 µg/mL) | 1.2 (≈ 2.97 µg/mL) | 100
9 | CC[C@H](C)[C@H](NC(=O)CNC(=O)[C@H](CCCNC(=N)N)NC(=O)[C@H](Cc1ccc(O)cc1)NC(=O)[C@@H](NC(=O)[C@@H](NC(=O)[C@H](CCCNC(=N)N)NC(=O)[C@H](Cc1ccccc1)NC(=O)[C@@H](NC(=O)[C@H](Cc1c[nH]c2ccccc12)NC(=O)[C@@H](N)CCCCN)[C@@H](C)O)C(C)C)[C@@H](C)O)C(=O)N[C@H](C(=O)N[C@@H](Cc1ccc(O)cc1)C(=O)N[C@@H](CCCNC(=N)N)C(=O)N[C@@H](CCCNC(=N)N)C(=O)N[C@H](C(=O)N[C@@H](CCCNC(=N)N)C(N)=O)[C@@H](C)O)[C@@H](C)O [4c] (H-KWTFRVTYRGITYRRTR-NH2) | 2.2 (≈ 4.97 µg/mL) |  | 6.3 (≈ 14.2 µg/mL) | 1.6 (≈ 3.62 µg/mL) | 6.3 (≈ 14.2 µg/mL) | 12.5 (≈ 28.2 µg/mL) | 100
10 | CC[C@H](C)[C@H](NC(=O)[C@H](CCCNC(=N)N)N(C)C(=O)[C@H](NC(=O)[C@H](Cc1ccc(O)cc1)NC(=O)[C@@H](NC(=O)[C@@H](NC(=O)[C@H](CCCNC(=N)N)NC(=O)[C@H](Cc1ccccc1)NC(=O)[C@@H](NC(=O)[C@H](Cc1c[nH]c2ccccc12)NC(=O)[C@@H](N)CCCCN)[C@@H](C)O)C(C)C)[C@@H](C)O)C(C)C)C(=O)N[C@H](C(=O)N[C@@H](Cc1ccc(O)cc1)C(=O)N[C@@H](CCCNC(=N)N)C(=O)N[C@@H](CCCNC(=N)N)C(=O)N[C@H](C(=O)N[C@@H](CCCNC(=N)N)C(N)=O)[C@@H](C)O)[C@@H](C)O [4e] (H-KWTFRVTY[dV][NMeR]ITYRRTR-NH2) | 0.2 (≈ 0.463 µg/mL) |  |  |  |  |  | 50
